In patent US9889115B2, “Fitness assay and associated methods” (priority 1998, dated 2018):
Where two headings read alike, the source gives them in different places.

Tests used:
Format in all cases: cell-based
[1] = test system: wild-type HIV-1 (WT); assay: IC50 against wild-type HIV-1 (Table 9a); details: (WT)
[2] = test system: multidrug-resistant HIV-1 clinical isolate, patient 22; assay: IC50 against multidrug-resistant clinical isolates (Table 9a)
Method: (§1) The mutant multidrug-resistant HIV-1 strains corresponding to each patient, numbered 9-35, were genetically analyzed in terms of the nucleic acid sequences of the protease (PR) and a portion of the reverse transcriptase (RT) genes from which mutations in these enzymes were determined. The mutations in the protease and reverse transcriptase of the multidrug-resistant viruses isolated from each patient are shown below in Table 9b.

[3] = test system: multidrug-resistant HIV-1 clinical isolate, patient 34; assay: as above
Method: as §1

[4] = test system: multidrug-resistant HIV-1 clinical isolate, patient 19; assay: microbe, parasite or virus in culture; details: Patient Isolate 19
Method: as §1

[5] = test system: multidrug-resistant HIV-1 clinical isolate, patient 10; assay: microbe, parasite or virus in culture; details: Patient Isolate 10
Method: as §1

[6] = test system: multidrug-resistant HIV-1 clinical isolate, patient 16; assay: microbe, parasite or virus in culture; details: Patient Isolate 16
Method: as §1

[7] = test system: multidrug-resistant HIV-1 clinical isolate, patient 32; assay: microbe, parasite or virus in culture; details: Patient Isolate 32
Method: as §1

[8] = test system: multidrug-resistant HIV-1 clinical isolate, patient 15; assay: microbe, parasite or virus in culture; details: Patient Isolate 15
Method: as §1

[9] = test system: multidrug-resistant HIV-1 clinical isolate, patient 21; assay: microbe, parasite or virus in culture; details: Patient Isolate 21
Method: as §1

[10] = test system: multidrug-resistant HIV-1 clinical isolate, patient 28; assay: microbe, parasite or virus in culture; details: Patient Isolate 28
Method: as §1

[11] = test system: multidrug-resistant HIV-1 clinical isolate, patient 18; assay: microbe, parasite or virus in culture; details: Patient Isolate 18
Method: as §1

[12] = test system: multidrug-resistant HIV-1 clinical isolate, patient 14; assay: microbe, parasite or virus in culture; details: Patient Isolate 14
Method: as §1

[13] = test system: multidrug-resistant HIV-1 clinical isolate, patient 23; assay: microbe, parasite or virus in culture; details: Patient Isolate 23
Method: as §1

[14] = test system: multidrug-resistant HIV-1 clinical isolate, patient 31; assay: microbe, parasite or virus in culture; details: Patient Isolate 31
Method: as §1

[15] = test system: multidrug-resistant HIV-1 clinical isolate, patient 33; assay: microbe, parasite or virus in culture; details: Patient Isolate 33
Method: as §1

[16] = test system: multidrug-resistant HIV-1 clinical isolate, patient 30; assay: microbe, parasite or virus in culture; details: Patient Isolate 30
Method: as §1

[17] = test system: multidrug-resistant HIV-1 clinical isolate, patient 35; assay: microbe, parasite or virus in culture; details: Patient Isolate 35
Method: as §1

[18] = test system: multidrug-resistant HIV-1 clinical isolate, patient 20; assay: microbe, parasite or virus in culture; details: Patient Isolate 20
Method: as §1

[19] = test system: multidrug-resistant HIV-1 clinical isolate, patient 9; assay: microbe, parasite or virus in culture; details: Patient Isolate 9
Method: as §1

[20] = test system: multidrug-resistant HIV-1 clinical isolate, patient 29; assay: microbe, parasite or virus in culture; details: Patient Isolate 29
Method: as §1

[21] = test system: multidrug-resistant HIV-1 clinical isolate, patient 13; assay: microbe, parasite or virus in culture; details: Patient Isolate 13
Method: as §1

[22] = test system: multidrug-resistant HIV-1 clinical isolate, patient 11; assay: microbe, parasite or virus in culture; details: Patient Isolate 11
Method: as §1

[23] = test system: multidrug-resistant HIV-1 clinical isolate, patient 12; assay: microbe, parasite or virus in culture; details: Patient Isolate 12
Method: as §1

[24] = test system: multidrug-resistant HIV-1 clinical isolate, patient 27; assay: microbe, parasite or virus in culture; details: Patient Isolate 27
Method: as §1

[25] = test system: HIV-1LAI; assay: PHA-PBMC assay, p24 Gag protein production; details: Human immunodeficiency virus 1; HIV-1LAI, SI; PHA-PBMC, p24 (Table 3)
[26] = test system: HIV-1BAL; assay: PHA-PBMC assay, p24 Gag protein production; details: Human immunodeficiency virus 1; HIV-1BAL, NSI; PHA-PBMC, p24 (Table 3)
[27] = test system: multidrug-resistant HIV-1 clinical isolate, patient 17; assay: microbe, parasite or virus in culture; details: Human immunodeficiency virus 1; Patient Isolate 17
Method: as §1

[28] = test system: multidrug-resistant HIV-1 clinical isolate, patient 5; assay: PHA-PBMC assay, p24 Gag protein production; details: Human immunodeficiency virus 1; Patient/Isolate code 5; PHA-PBMC, p24
Method: (§2) The patient profiles are shown below in Table 2.
(§3) To determine protease inhibitory activity against multidrug resistant HIV, the IC50's were measured against a panel of clinically isolated mutant HIV isolates.
(§4) All drug sensitivities were performed in triplicate. In order to determine whether the HIV isolates were syncitium inducing (SI) or non-syncitium inducing (NSI), an aliquot of viral stock supernatant, containing 100 TCID50, was cultured with 1×10^5 MT-2 cells in a 12-well plate. Cultures were maintained for four weeks and were examined for syncytium formation twice a week.

[29] = test system: multidrug-resistant HIV-1 clinical isolate, patient 1; assay: PHA-PBMC assay, p24 Gag protein production; details: Human immunodeficiency virus 1; Patient/Isolate code 1; PHA-PBMC, p24
Method: as §2, §3, §4

[30] = test system: multidrug-resistant HIV-1 clinical isolate, patient 7; assay: PHA-PBMC assay, p24 Gag protein production; details: Human immunodeficiency virus 1; Patient/Isolate code 7; PHA-PBMC, p24
Method: as §2, §3, §4

[31] = test system: multidrug-resistant HIV-1 clinical isolate, patient 6; assay: PHA-PBMC assay, p24 Gag protein production; details: Human immunodeficiency virus 1; Patient/Isolate code 6; PHA-PBMC, p24
Method: as §2, §3, §4

[32] = test system: multidrug-resistant HIV-1 clinical isolate, patient 3; assay: PHA-PBMC assay, p24 Gag protein production; details: Human immunodeficiency virus 1; Patient/Isolate code 3; PHA-PBMC, p24
Method: as §2, §3, §4

[33] = test system: HIV-1ERS104pre; assay: PHA-PBMC assay, p24 Gag protein production; details: Human immunodeficiency virus 1; HIV-1ERS104pre, SI; PHA-PBMC, p24
Method: as §2, §3, §4

[34] = test system: multidrug-resistant HIV-1 clinical isolate, patient 2; assay: PHA-PBMC assay, p24 Gag protein production; details: Human immunodeficiency virus 1; Patient/Isolate code 2; PHA-PBMC, p24
Method: as §2, §3, §4

[35] = test system: multidrug-resistant HIV-1 clinical isolate, patient 4; assay: PHA-PBMC assay, p24 Gag protein production; details: Human immunodeficiency virus 1; Patient/Isolate code 4; PHA-PBMC, p24
Method: as §2, §3, §4

[36] = test system: multidrug-resistant HIV-1 clinical isolate, patient 8; assay: PHA-PBMC assay, p24 Gag protein production; details: Human immunodeficiency virus 1; Patient/Isolate code 8; PHA-PBMC, p24
Method: as §2, §3, §4

Compound Nc1ccn([C@H]2CC[C@@H](CO)O2)c(=O)n1 [DDC, 2′3′-dideoxycytidine] has an IC50 [1] of 243 nM.

O=c1[nH]cnc2c1ncn2[C@H]1CC[C@@H](CO)O1 [DDI, 2′3′-dideoxyinosine] gave an IC50 ([2]; Patient Isolate 22, read-out: IC50) of 3700 nM, an IC50 ([3]; Patient Isolate 34, read-out: IC50) of 9100 nM and an IC50 [4] of 36600 nM. For the same compound, the IC50 [5] was 1700 nM, the IC50 [6] was 3500 nM and the IC50 [7] was 8400 nM. The IC50 [8] was 2200 nM, the IC50 [9] was 1000 nM and the IC50 [10] was 2800 nM. It also gave an IC50 [11] of 2200 nM, an IC50 [12] of 2400 nM and an IC50 [13] of 1800 nM. For the same compound, the IC50 [14] was 2600 nM, the IC50 [15] was 2000 nM and the IC50 [16] was 2800 nM. For the same compound, the IC50 [17] was 17000 nM, the IC50 [18] was 7100 nM and the IC50 [19] was 700 nM. The IC50 [20] was 3800 nM, the IC50 [21] was 500 nM and the IC50 [22] was 2400 nM. For the same compound, the IC50 [23] was 900 nM, the IC50 [24] was 2600 nM and the IC50 [1] was 895 nM.

In the case of CC(C)(C)NC(=O)[C@@H]1CN(Cc2cccnc2)CCN1C[C@@H](O)C[C@@H](Cc1ccccc1)C(=O)N[C@H]1c2ccccc2C[C@H]1O [IDV, Indinavir], the IC50 [25] is reported as 19 nM, the IC50 [26] is reported as 5.6 nM and the IC50 ([2]; Human immunodeficiency virus 1) is reported as 173 nM. For the same compound, the IC50 ([3]; Human immunodeficiency virus 1) was 595 nM, the IC50 ([4]; Human immunodeficiency virus 1) was 784 nM and the IC50 ([5]; Human immunodeficiency virus 1) was > 1250 nM. The IC50 ([6]; Human immunodeficiency virus 1) was 384 nM, the IC50 ([7]; Human immunodeficiency virus 1) was 223 nM and the IC50 ([8]; Human immunodeficiency virus 1) was 265 nM. For the same compound, the IC50 ([10]; Human immunodeficiency virus 1) was 1040 nM, the IC50 ([11]; Human immunodeficiency virus 1) was 369 nM and the IC50 ([12]; Human immunodeficiency virus 1) was 89 nM. The IC50 ([13]; Human immunodeficiency virus 1) was 461 nM, the IC50 ([14]; Human immunodeficiency virus 1) was 251 nM and the IC50 [27] was 502 nM. For the same compound, the IC50 ([15]; Human immunodeficiency virus 1) was 133 nM, the IC50 ([16]; Human immunodeficiency virus 1) was 270 nM and the IC50 ([17]; Human immunodeficiency virus 1) was 509 nM. It also gave an IC50 ([18]; Human immunodeficiency virus 1) of 591 nM, an IC50 ([19]; Human immunodeficiency virus 1) of 1090 nM and an IC50 ([20]; Human immunodeficiency virus 1) of 569 nM. The IC50 ([21]; Human immunodeficiency virus 1) was > 1250 nM, the IC50 ([22]; Human immunodeficiency virus 1) was 12 nM and the IC50 ([23]; Human immunodeficiency virus 1) was > 1250 nM. The IC50 ([24]; Human immunodeficiency virus 1) was > 1250 nM, the IC50 ([1]; Human immunodeficiency virus 1) was 20 nM and the IC50 [28] was 800 nM. The IC50 [29] was > 1000 nM, the IC50 [30] was > 1000 nM and the IC50 [31] was 370 nM. The IC50 [32] was 460 nM, the IC50 [33] was 13 nM and the IC50 [34] was 240 nM. For the same compound, the IC50 [35] was 240 nM and the IC50 [36] was > 1000 nM.

For Cc1c(O)cccc1C(=O)N[C@@H](CSc1ccccc1)[C@H](O)CN1C[C@H]2CCCC[C@H]2C[C@H]1C(=O)NC(C)(C)C [Nel., Nelfinavir], the IC50 ([2]; Human immunodeficiency virus 1) was 100 nM, the IC50 ([3]; Human immunodeficiency virus 1) was 260 nM and the IC50 ([4]; Human immunodeficiency virus 1) was 500 nM. For the same compound, the IC50 ([5]; Human immunodeficiency virus 1) was > 1250 nM, the IC50 ([6]; Human immunodeficiency virus 1) was 860 nM and the IC50 ([7]; Human immunodeficiency virus 1) was 220 nM. For the same compound, the IC50 ([8]; Human immunodeficiency virus 1) was 470 nM, the IC50 ([9]; Human immunodeficiency virus 1) was > 1250 nM and the IC50 ([10]; Human immunodeficiency virus 1) was > 1250 nM. For the same compound, the IC50 ([11]; Human immunodeficiency virus 1) was 600 nM, the IC50 ([12]; Human immunodeficiency virus 1) was 10 nM and the IC50 ([13]; Human immunodeficiency virus 1) was 280 nM. It also gave an IC50 ([14]; Human immunodeficiency virus 1) of 240 nM, an IC50 [27] of 520 nM and an IC50 ([15]; Human immunodeficiency virus 1) of 350 nM. The IC50 ([16]; Human immunodeficiency virus 1) was 520 nM, the IC50 ([17]; Human immunodeficiency virus 1) was 480 nM and the IC50 ([18]; Human immunodeficiency virus 1) was 580 nM. For the same compound, the IC50 ([19]; Human immunodeficiency virus 1) was 980 nM, the IC50 ([20]; Human immunodeficiency virus 1) was 670 nM and the IC50 ([21]; Human immunodeficiency virus 1) was 470 nM. For the same compound, the IC50 ([22]; Human immunodeficiency virus 1) was 30 nM, the IC50 ([23]; Human immunodeficiency virus 1) was > 1250 nM and the IC50 ([24]; Human immunodeficiency virus 1) was > 1250 nM. It also gave an IC50 ([1]; Human immunodeficiency virus 1) of 31 nM.
